Measurements: ChEMBL document CHEMBL4011590, “Structure-activity relationship studies on 3,5-dinitrophenyl tetrazoles as antitubercular agents” (Eur J Med Chem, 2017)
In brackets after ≈: the same amount, converted by molar mass.

Columns and labels:
Candida albicans [1] = assay: Antifungal activity against Candida albicans ATCC 44859 after 48 hrs by broth microdilution method; assay type: functional; conditions: ATCC 44859, 48 h
Lichtheimia corymbifera [2] = assay: Antifungal activity against Absidia corymbifera 272 after 24 hrs by broth microdilution method; assay type: functional; conditions: Lichtheimia corymbifera, 272, 24 h
Mycobacterium kansasii [3] = assay: Antimycobacterial activity against Mycobacterium kansasii isolate 6509/96 after 21 days by micromethod; assay type: functional; conditions: isolate 6509/96, 504 h
Klebsiella pneumoniae [4] = assay: Antibacterial activity against Klebsiella pneumoniae HK11750/08 after 48 hrs by broth microdilution method; assay type: functional; conditions: HK11750/08, 48 h
Candida tropicalis [5] = assay: Antifungal activity against Candida tropicalis 156 after 48 hrs by broth microdilution method; assay type: functional; conditions: Candida tropicalis, 156, 48 h
Trichosporon asahii [6] = assay: Antifungal activity against Trichosporon asahii 1188 after 48 hrs by broth microdilution method; assay type: functional; conditions: Trichosporon asahii, 1188, 48 h
Enterococcus sp. [7] = assay: Antibacterial activity against Enterococcus sp. HK14365/08 after 48 hrs by broth microdilution method; assay type: functional; conditions: HK14365/08, 48 h
Escherichia coli [8] = assay: Antibacterial activity against Escherichia coli ATCC 8739 after 48 hrs by broth microdilution method; assay type: functional; conditions: ATCC 8739, 48 h
Staphylococcus aureus [9] = assay: Antibacterial activity against methicillin-resistant Staphylococcus aureus HK5996/08 after 24 hrs by broth microdilution method; assay type: functional; conditions: HK5996/08, 24 h
Enterococcus sp. [10] = assay: Antibacterial activity against Enterococcus sp. HK14365/08 after 24 hrs by broth microdilution method; assay type: functional; conditions: HK14365/08, 24 h
Staphylococcus aureus [11] = assay: Antibacterial activity against methicillin-resistant Staphylococcus aureus HK5996/08 after 48 hrs by broth microdilution method; assay type: functional; conditions: HK5996/08, 48 h
Klebsiella pneumoniae [12] = assay: Antibacterial activity against Klebsiella pneumoniae HK11750/08 after 24 hrs by broth microdilution method; assay type: functional; conditions: HK11750/08, 24 h
Staphylococcus aureus [13] = assay: Antibacterial activity against Staphylococcus aureus ATCC 6538 after 24 hrs by broth microdilution method; assay type: functional; conditions: ATCC 6538, 24 h
Staphylococcus aureus [14] = assay: Antibacterial activity against Staphylococcus aureus ATCC 6538 after 48 hrs by broth microdilution method; assay type: functional; conditions: ATCC 6538, 48 h
Mycobacterium avium [15] = assay: Antimycobacterial activity against Mycobacterium avium CNCTC My 330/80 after 14 days by micromethod; assay type: functional; conditions: CNCTC My 330/80, 336 h
[16] = tested on: Mycobacterium tuberculosis; assay: Antimycobacterial activity against Mycobacterium tuberculosis H37Rv CNCTC My 331/88 after 21 days by micromethod; assay type: functional; conditions: H37Rv CNCTC My 331/88, 504 h
Klebsiella pneumoniae [17] = assay: Antibacterial activity against extended spectrum beta-lactamase producing Klebsiella pneumoniae HK14368/08 after 48 hrs by broth microdilution method; assay type: functional; conditions: HK14368/08, 48 h
Mycobacterium kansasii [18] = assay: Antimycobacterial activity against Mycobacterium kansasii isolate 6509/96 after 7 days by micromethod; assay type: functional; conditions: isolate 6509/96, 168 h
Nakaseomyces glabratus [19] = assay: Antifungal activity against Candida glabrata 20/I after 24 hrs by broth microdilution method; assay type: functional
[20] = tested on: Mycobacterium tuberculosis; assay: Antimycobacterial activity against Mycobacterium tuberculosis H37Rv CNCTC My 331/88 after 14 days by micromethod; assay type: functional; conditions: H37Rv CNCTC My 331/88, 336 h
Aspergillus fumigatus [21] = assay: Antifungal activity against Aspergillus fumigatus 231 after 48 hrs by broth microdilution method; assay type: functional; conditions: Aspergillus fumigatus, 231, 48 h
Mycobacterium kansasii [22] = assay: Antimycobacterial activity against Mycobacterium kansasii isolate 6509/96 after 14 days by micromethod; assay type: functional; conditions: isolate 6509/96, 336 h
Pichia kudriavzevii [23] = assay: Antifungal activity against Candida krusei E28 after 48 hrs by broth microdilution method; assay type: functional; conditions: E28, 48 h
[24] = tested on: Staphylococcus epidermidis; assay: Antibacterial activity against Staphylococcus epidermidis HK6966/08 after 48 hrs by broth microdilution method; assay type: functional; conditions: HK6966/08, 48 h
Aspergillus fumigatus [25] = assay: Antifungal activity against Aspergillus fumigatus 231 after 24 hrs by broth microdilution method; assay type: functional; conditions: Aspergillus fumigatus, 231, 24 h
Mycobacterium kansasii [26] = assay: Antimycobacterial activity against Mycobacterium kansasii CNCTC My 235/80 after 21 days by micromethod; assay type: functional; conditions: CNCTC My 235/80, 504 h
[27] = tested on: Staphylococcus epidermidis; assay: Antibacterial activity against Staphylococcus epidermidis HK6966/08 after 24 hrs by broth microdilution method; assay type: functional; conditions: HK6966/08, 24 h
Mycobacterium kansasii [28] = assay: Antimycobacterial activity against Mycobacterium kansasii CNCTC My 235/80 after 7 days by micromethod; assay type: functional; conditions: CNCTC My 235/80, 168 h
Escherichia coli [29] = assay: Antibacterial activity against Escherichia coli ATCC 8739 after 24 hrs by broth microdilution method; assay type: functional; conditions: ATCC 8739, 24 h
Klebsiella pneumoniae [30] = assay: Antibacterial activity against extended spectrum beta-lactamase producing Klebsiella pneumoniae HK14368/08 after 24 hrs by broth microdilution method; assay type: functional; conditions: HK14368/08, 24 h
[31] = tested on: Trichophyton mentagrophytes; assay: Antifungal activity against Trichophyton mentagrophytes 445 after 72 hrs by broth microdilution method; assay type: functional; conditions: Trichophyton mentagrophytes, 445, 72 h
Nakaseomyces glabratus [32] = assay: Antifungal activity against Candida glabrata 20/I after 48 hrs by broth microdilution method; assay type: functional
Pseudomonas aeruginosa [33] = assay: Antibacterial activity against Pseudomonas aeruginosa ATCC 9027 after 24 hrs by broth microdilution method; assay type: functional; conditions: ATCC 9027, 24 h
Lichtheimia corymbifera [34] = assay: Antifungal activity against Absidia corymbifera 272 after 48 hrs by broth microdilution method; assay type: functional; conditions: Lichtheimia corymbifera, 272, 48 h
Candida albicans [35] = assay: Antifungal activity against Candida albicans ATCC 44859 after 24 hrs by broth microdilution method; assay type: functional; conditions: ATCC 44859, 24 h
Pseudomonas aeruginosa [36] = assay: Antibacterial activity against Pseudomonas aeruginosa ATCC 9027 after 48 hrs by broth microdilution method; assay type: functional; conditions: ATCC 9027, 48 h
[37] = tested on: Trichophyton mentagrophytes; assay: Antifungal activity against Trichophyton mentagrophytes 445 after 120 hrs by broth microdilution method; assay type: functional; conditions: Trichophyton mentagrophytes, 445, 120 h
Mycobacterium kansasii [38] = assay: Antimycobacterial activity against Mycobacterium kansasii CNCTC My 235/80 after 14 days by micromethod; assay type: functional; conditions: CNCTC My 235/80, 336 h
Mycobacterium avium [39] = assay: Antimycobacterial activity against Mycobacterium avium CNCTC My 330/80 after 21 days by micromethod; assay type: functional; conditions: CNCTC My 330/80, 504 h
Pichia kudriavzevii [40] = assay: Antifungal activity against Candida krusei E28 after 24 hrs by broth microdilution method; assay type: functional; conditions: E28, 24 h
CHO-K1 = assay: Cytotoxicity against CHOK1 cells after 24 hrs by MTT assay; assay type: cell-based; conditions: Cricetulus griseus, CHO-K1, 24 h
Trichosporon asahii [41] = assay: Antifungal activity against Trichosporon asahii 1188 after 24 hrs by broth microdilution method; assay type: functional; conditions: Trichosporon asahii, 1188, 24 h
Candida tropicalis [42] = assay: Antifungal activity against Candida tropicalis 156 after 24 hrs by broth microdilution method; assay type: functional; conditions: Candida tropicalis, 156, 24 h

In the case of `O=[N+]([O-])c1cc(-c2nnn(Cc3ccccc3F)n2)cc([N+](=O)[O-])c1`, the MIC (Candida albicans [1]) is reported as greater than 500 µM, the MIC (Lichtheimia corymbifera [2]) is reported as greater than 500 µM and the MIC99 (Mycobacterium kansasii [3]) is reported as 2 µM (≈ 0.689 µg/mL). The MIC (Klebsiella pneumoniae [4]) was greater than 500 µM, the MIC (Candida tropicalis [5]) was greater than 500 µM and the MIC (Trichosporon asahii [6]) was greater than 500 µM. The MIC (Enterococcus sp. [7]) was greater than 500 µM, the MIC (Escherichia coli [8]) was greater than 500 µM and the MIC (Staphylococcus aureus [9]) was 500 µM (≈ 172 µg/mL). For the same compound, the MIC (Enterococcus sp. [10]) was greater than 500 µM, the MIC (Staphylococcus aureus [11]) was 500 µM (≈ 172 µg/mL) and the MIC (Klebsiella pneumoniae [12]) was greater than 500 µM. The MIC (Staphylococcus aureus [13]) was 500 µM (≈ 172 µg/mL), the MIC (Staphylococcus aureus [14]) was 500 µM (≈ 172 µg/mL) and the MIC99 (Mycobacterium avium [15]) was 8 µM (≈ 2.75 µg/mL). For the same compound, the MIC99 [16] was 0.5 µM (≈ 0.172 µg/mL), the MIC (Klebsiella pneumoniae [17]) was greater than 500 µM and the MIC99 (Mycobacterium kansasii [18]) was 1 µM (≈ 0.344 µg/mL). It also gave an MIC (Nakaseomyces glabratus [19]) greater than 500 µM, an MIC99 [20] of 0.5 µM (≈ 0.172 µg/mL) and an MIC (Aspergillus fumigatus [21]) greater than 500 µM. For the same compound, the MIC99 (Mycobacterium kansasii [22]) was 1 µM (≈ 0.344 µg/mL), the MIC (Pichia kudriavzevii [23]) was greater than 500 µM and the MIC [24] was 250 µM (≈ 86.1 µg/mL). For the same compound, the MIC (Aspergillus fumigatus [25]) was greater than 500 µM, the MIC99 (Mycobacterium kansasii [26]) was 2 µM (≈ 0.689 µg/mL) and the MIC [27] was 250 µM (≈ 86.1 µg/mL). The MIC99 (Mycobacterium kansasii [28]) was 0.5 µM (≈ 0.172 µg/mL), the MIC (Escherichia coli [29]) was greater than 500 µM and the MIC (Klebsiella pneumoniae [30]) was greater than 500 µM. It also gave an MIC [31] greater than 500 µM, an MIC (Nakaseomyces glabratus [32]) greater than 500 µM and an MIC (Pseudomonas aeruginosa [33]) greater than 500 µM. It also gave an MIC (Lichtheimia corymbifera [34]) greater than 500 µM, an MIC (Candida albicans [35]) greater than 500 µM and an MIC (Pseudomonas aeruginosa [36]) greater than 500 µM. It also gave an MIC [37] greater than 500 µM, an MIC99 (Mycobacterium kansasii [38]) of 1 µM (≈ 0.344 µg/mL) and an MIC99 (Mycobacterium avium [39]) of 16 µM (≈ 5.51 µg/mL). For the same compound, the MIC (Pichia kudriavzevii [40]) was greater than 500 µM, the IC50 (CHO-K1) was greater than 200 µM and the MIC (Trichosporon asahii [41]) was greater than 500 µM. It also gave an MIC (Candida tropicalis [42]) greater than 500 µM.

Work on `COc1cccc(-n2nnnc2SCn2nnc(-c3cc([N+](=O)[O-])cc([N+](=O)[O-])c3)n2)c1` yielded an MIC (Candida albicans [1]) greater than 500 µM, an MIC (Lichtheimia corymbifera [2]) greater than 500 µM and an MIC99 (Mycobacterium kansasii [3]) of 1 µM (≈ 0.456 µg/mL). For the same compound, the MIC (Klebsiella pneumoniae [4]) was greater than 125 µM, the MIC (Candida tropicalis [5]) was greater than 500 µM and the MIC (Trichosporon asahii [6]) was greater than 500 µM. For the same compound, the MIC (Enterococcus sp. [7]) was greater than 125 µM, the MIC (Escherichia coli [8]) was greater than 125 µM and the MIC (Staphylococcus aureus [9]) was greater than 125 µM. It also gave an MIC (Enterococcus sp. [10]) greater than 125 µM, an MIC (Staphylococcus aureus [11]) greater than 125 µM and an MIC (Klebsiella pneumoniae [12]) greater than 125 µM. It also gave an MIC (Staphylococcus aureus [13]) greater than 125 µM, an MIC (Staphylococcus aureus [14]) greater than 125 µM and an MIC99 (Mycobacterium avium [15]) of 8 µM (≈ 3.65 µg/mL). It also gave an MIC99 [16] of 0.03 µM (≈ 0.0137 µg/mL), an MIC (Klebsiella pneumoniae [17]) greater than 125 µM and an MIC99 (Mycobacterium kansasii [18]) of 0.5 µM (≈ 0.228 µg/mL). The MIC (Nakaseomyces glabratus [19]) was greater than 500 µM, the MIC99 [20] was 0.03 µM (≈ 0.0137 µg/mL) and the MIC (Aspergillus fumigatus [21]) was greater than 500 µM. The MIC99 (Mycobacterium kansasii [22]) was 1 µM (≈ 0.456 µg/mL), the MIC (Pichia kudriavzevii [23]) was greater than 500 µM and the MIC [24] was greater than 125 µM. The MIC (Aspergillus fumigatus [25]) was greater than 500 µM, the MIC99 (Mycobacterium kansasii [26]) was 2 µM (≈ 0.913 µg/mL) and the MIC [27] was greater than 125 µM. The MIC99 (Mycobacterium kansasii [28]) was 1 µM (≈ 0.456 µg/mL), the MIC (Escherichia coli [29]) was greater than 125 µM and the MIC (Klebsiella pneumoniae [30]) was greater than 125 µM. The MIC [31] was greater than 500 µM, the MIC (Nakaseomyces glabratus [32]) was greater than 500 µM and the MIC (Pseudomonas aeruginosa [33]) was greater than 125 µM. For the same compound, the MIC (Lichtheimia corymbifera [34]) was greater than 500 µM, the MIC (Candida albicans [35]) was greater than 500 µM and the MIC (Pseudomonas aeruginosa [36]) was greater than 125 µM. The MIC [37] was greater than 500 µM, the MIC99 (Mycobacterium kansasii [38]) was 1 µM (≈ 0.456 µg/mL) and the MIC99 (Mycobacterium avium [39]) was 16 µM (≈ 7.3 µg/mL). For the same compound, the MIC (Pichia kudriavzevii [40]) was greater than 500 µM, the IC50 (CHO-K1) was 135 µM and the MIC (Trichosporon asahii [41]) was greater than 500 µM. The MIC (Candida tropicalis [42]) was greater than 500 µM.
